These compounds were tested on HBeAg level (surrogate marker for cccDNA) in HepDES19 cells (assay: Engineered HepDES19 primary screen assay (HBeAg as surrogate marker for cccDNA)). Conditions: Hepatitis B virus, HepDES19, 120 h, read-out: IC50 (HBeAg) in HepDES19 primary screen assay, HepDES19 cells, 5 days incubation with compound, HBeAg by ELISA.
Assay type: cell-based, HBV
From the text: The assay was employed to screen for novel cccDNA inhibitors. HepDES19 is a cccDNA-producing cell line. In this cell line, HBeAg in the cell culture supernatant as surrogate marker, as HBeAg production depends on cccDNA level and activity. HepDES19 is an engineered cell line which contains a 1.1 unit length HBV genome, and pgRNA transcription from the transgene is controlled by Tetracycline (Tet). In the absence of Tet, pgRNA transcription will be induced, but HBV e antigen (HBeAg) could not be produced from this pgRNA due to very short leader sequence before the HBeAg start codon and the start codon is disrupted. Only after cccDNA is formed, the missing leader sequence and start codon mutation would be restored from the 3′-terminal redundancy of pgRNA, and then HBeAg could be synthesized. Therefore, HBeAg could be used as a surrogate marker for cccDNA (Zhou, T. et al., Antiviral Res. (2006), 72(2), 116-124; Guo, H. et al., J. Virol. (2007), 81(22), 12472-12484).
HepDES19 cells were seeded at 2×10^6 cells per T150 flask and cultured with the culture medium (Dulbecco's Modified Eagle Medium: Nutrient Mixture F-12 [DMEM-F12, Gibco Cat. 11320-82], 10% Fetal Bovine Serum [FBS, Clontech Cat. 631101], 0.1 mM Non-Essential Amino Acids Solution [NEAA, Gibco Cat. 11140-050], 50 μg/mL Penicillin-Streptomycin [PS, Invitrogen Cat. 15140-163], 500 μg/mL Geneticin [G418, Invitrogen Cat. 10131-027]) containing 3 μg/mL Tet (Sigma, Cat. 87128) for 5 days. Cells were then seeded at 4×10^6 cells per T150 in the same culture medium as described above in the absence of Tet for 8 days. Cells were then harvested and frozen at density of 2×10^6 cells per mL. For compound testing, the frozen cells were thawed and seeded into 96-well plates at a density of 6×10^4 cells per well. At 24 hrs after seeding, half log serial dilutions of compounds made with Dimethyl sulfoxide (DMSO, Sigma, Cat. D2650) were further diluted with the same culture medium as described above before they were added to the cells to reach desired final compound concentrations and 1% DMSO concentration. Plates were then incubated at 37° C. for another 5 days before measurement of HBeAg level and cell viability. Intracellular HBeAg level were measured with enzyme-linked immunosorbent assay (ELISA) kit (Shanghai Kehua Diagnostic Medical Products Co., Ltd). Cell viability was assessed using Cell Counting Kit-8 (Donjindo, Cat. CK04-20). IC50 values were derived from the dose-response curve using 4 parameter logistic curve fit method.
The compounds of the present invention were tested for their capacity to inhibit extracellular HBeAg level as described herein.

Compared with `NC(=O)COCCOc1ccc(-c2cc(=O)c3cccc(Cl)c3o2)cc1` [Example 61, 2-[2-[4-(8-chloro-4-oxo-chromen-2-yl)phenoxy]ethoxy]acetamide], `O=C(O)COCCOc1ccc(-c2cc(=O)c3cccc(Cl)c3o2)cc1` [Example 9, 2-[2-[4-(8-chloro-4-oxo-chromen-2-yl)phenoxy]ethoxy]acetic acid] is 17-fold higher in IC50: 0.144 µM for the first, 2.46 µM for the second. The first is the more potent here.

First: N#Cc1cc(Cl)c2oc(-c3ccc(OCCOC4CC(C(=O)O)C4)cc3)cc(=O)c2c1 (stereo not drawn) [Example 22, 3-[2-[4-(8-chloro-6-cyano-4-oxo-chromen-2-yl)phenoxy]ethoxy]cyclobutanecarboxylic acid]
Second: O=C(O)C1CC(OCCOc2ccc(-c3cc(=O)c4cc(F)cc(Cl)c4o3)cc2)C1 (stereo not drawn) [Example 20, 3-[2-[4-(8-chloro-6-fluoro-4-oxo-chromen-2-yl)phenoxy]ethoxy]cyclobutanecarboxylic acid]
The IC50 of the first is 19-fold higher: 13 µM for the first, 0.7 µM for the second.

`CCOC(=O)COCCOc1ccc(-c2cc(=O)c3ccc(Br)c(Cl)c3o2)cc1` [Example 71, ethyl 2-[2-[4-(7-bromo-8-chloro-4-oxo-chromen-2-yl)phenoxy]ethoxy]acetate] and `O=C(O)COCCOc1ccc(-c2cc(=O)c3c(F)ccc(Cl)c3o2)cc1` [Example 37, 2-[2-[4-(8-chloro-5-fluoro-4-oxo-chromen-2-yl)phenoxy]ethoxy]acetic acid] are within 1.5-fold of each other in IC50: 9.3 µM for the first, 8.97 µM for the second.

`CC(C)c1cc(-c2cc(=O)c3cccc(Cl)c3o2)ccc1OCCOC1CC(C(=O)O)C1` (stereo not drawn) [Example 48, 3-[2-[4-(8-chloro-4-oxo-chromen-2-yl)-2-isopropyl-phenoxy]ethoxy]cyclobutanecarboxylic acid] and `CC(C)Oc1ccc(Cl)c2oc(-c3ccc(OCCO[C@H]4C[C@@H](C(=O)O)C4)cc3)cc(=O)c12` [Example 27, Cis-3-[2-[4-(8-chloro-5-isopropoxy-4-oxo-chromen-2-yl)phenoxy]ethoxy]cyclobutanecarboxylic acid] are the same in IC50: 7.68 µM for the first, 7.68 µM for the second.

Compared with `O=C(O)C1CC(OCCOc2ccc(-c3cc(=O)c4cccc(Cl)c4o3)c(N3CCOCC3)c2)C1` (stereo not drawn) [Example 60, 3-[2-[4-(8-chloro-4-oxo-chromen-2-yl)-3-morpholino-phenoxy]ethoxy]cyclobutanecarboxylic acid], `O=C(O)C1CC(OCCOc2ccc(-c3cc(=O)c4cc(N5CCCC5=O)cc(Cl)c4o3)cc2)C1` (stereo not drawn) [Example 68, 3-[2-[4-[8-chloro-4-oxo-6-(2-oxopyrrolidin-1-yl)chromen-2-yl]phenoxy]ethoxy]cyclobutanecarboxylic acid] is 2.1-fold higher in IC50: 4.84 µM for the first, 10.1 µM for the second. The first is the more potent here.

Compared with `O=C(O)COCCOc1ccc(-c2oc3c(Cl)cccc3c(=O)c2O)cc1` [Example 59, 2-[2-[4-(8-chloro-3-hydroxy-4-oxo-chromen-2-yl)phenoxy]ethoxy]acetic acid], `O=C(O)C1CC(OCCOc2ccc(-c3oc4c(Cl)cccc4c(=O)c3Br)cc2)C1` (stereo not drawn) [Example 64, 3-[2-[4-(3-bromo-8-chloro-4-oxo-chromen-2-yl)phenoxy]ethoxy]cyclobutanecarboxylic acid] is 3.7-fold lower in IC50: 20.2 µM for the first, 5.5 µM for the second.

Compared with `COc1c(-c2ccc(OCCO[C@H]3C[C@@H](C(=O)O)C3)cc2)oc2c(Cl)cccc2c1=O` [Example 56, Cis-3-[2-[4-(8-chloro-3-methoxy-4-oxo-chromen-2-yl)phenoxy]ethoxy]cyclobutanecarboxylic acid], `O=C(O)C1CC(OCCOc2ccc(-c3oc4c(Cl)cccc4c(=O)c3OCc3ccccc3)cc2)C1` (stereo not drawn) [Example 65, 3-[2-[4-(3-benzyloxy-8-chloro-4-oxo-chromen-2-yl)phenoxy]ethoxy]cyclobutanecarboxylic acid] is 4.6-fold lower in IC50: 29.6 µM for the first, 6.5 µM for the second.

`Cc1cccc2c(=O)cc(-c3ccc(OCCO[C@H]4C[C@@H](C(=O)O)C4)cc3)oc12` [Example 35, Cis-3-[2-[4-(8-methyl-4-oxo-chromen-2-yl)phenoxy]ethoxy]cyclobutanecarboxylic acid] and `O=c1cc(-c2ccc(OCCO[C@H]3C[C@@H](C(=O)O)C3)cc2)oc2c(C3CC3)cccc12` [Example 34, Cis-3-[2-[4-(8-cyclopropyl-4-oxo-chromen-2-yl)phenoxy]ethoxy]cyclobutanecarboxylic acid] are within 1.5-fold of each other in IC50: 13.9 µM for the first, 16 µM for the second.

Compared with `O=C(O)C1CC(OCCOc2ccc(-c3cc(=O)c4ccc(C5CC5)c(Cl)c4o3)cc2)C1` (stereo not drawn) [Example 70, 3-[2-[4-(8-chloro-7-cyclopropyl-4-oxo-chromen-2-yl)phenoxy]ethoxy]cyclobutanecarboxylic acid], `Cc1ccc(Cl)c2oc(-c3ccc(OCCO[C@H]4C[C@@H](C(=O)O)C4)cc3)cc(=O)c12` [Example 31, Cis-3-[2-[4-(8-chloro-5-methyl-4-oxo-chromen-2-yl)phenoxy]ethoxy]cyclobutanecarboxylic acid] is 22-fold lower in IC50: 17.2 µM for the first, 0.78 µM for the second. The second is the more potent here.

`COC(=O)[C@H]1C[C@@H](OCCOc2ccc(-c3cc(=O)c4cccc(Cl)c4o3)nn2)C1` [Example 41, Cis-methyl 3-[2-[6-(8-chloro-4-oxo-chromen-2-yl)pyridazin-3-yl]oxyethoxy]cyclobutanecarboxylate] and `O=c1cc(-c2ccc(OCCO[C@H]3CC[C@@H](C(=O)O)CC3)cc2)oc2c(Cl)cccc12` (single isomer, unassigned) [Example 7-A, 4-[2-[4-(8-chloro-4-oxo-chromen-2-yl)phenoxy]ethoxy]cyclohexanecarboxylic acid] are within 1.5-fold of each other in IC50: 12.8 µM for the first, 15.4 µM for the second.

Same assay, conditions: read-out: IC50 (HBeAg) in HepDES19 primary screen assay; HepDES19 cells, 5 days incubation with compound, HBeAg by ELISA

`O=C(O)C1CC(OCCOc2ccc(-c3cc(=O)c4ccc(C5CC5)c(Cl)c4o3)cc2)C1` (single isomer, unassigned) [Example 70-A, 3-[2-[4-(8-chloro-7-cyclopropyl-4-oxo-chromen-2-yl)phenoxy]ethoxy]cyclobutanecarboxylic acid] and `O=c1cc(-c2ccc(OCCO[C@H]3CC[C@@H](C(=O)O)CC3)cc2)oc2c(Cl)cccc12` (single isomer, unassigned) [Example 7-B, 4-[2-[4-(8-chloro-4-oxo-chromen-2-yl)phenoxy]ethoxy]cyclohexanecarboxylic acid] are within 1.5-fold of each other in IC50: 19.8 µM for the first, 19.7 µM for the second.

`O=C(O)[C@H]1C[C@H]1OCCOc1ccc(-c2cc(=O)c3cccc(Cl)c3o2)cc1` (single isomer, unassigned) [Example 5-A, 2-[2-[4-(8-chloro-4-oxo-chromen-2-yl)phenoxy]ethoxy]cyclopropanecarboxylic acid] and `COC(=O)C1CC(OCCOc2ccc(-c3oc4c(Cl)cc(F)cc4c(=O)c3OC(F)(F)F)cc2)C1` (single isomer, unassigned) [Example 62-B, methyl 3-[2-[4-[8-chloro-6-fluoro-4-oxo-3-(trifluoromethoxy)chromen-2-yl]phenoxy]ethoxy]cyclobutanecarboxylate] are within 1.5-fold of each other in IC50: 1.36 µM for the first, 1.32 µM for the second.

Source: patent publication US12012390B2, “Flavone compounds for the treatment and prophylaxis of hepatitis B virus disease” (priority 2018, dated 2024)
